This is an account of results in US10851083B2, “Benzoimidazoles as prolyl hydroxylase inhibitors” (Janssen Pharmaceutica NV, priority 2008, dated 2020).

Structures are written as SMILES.

In the first experiment the test system is Hep-3B cells. Put plainly: Cellular assay: EPO secretion in Hep-3B cells. The experiment is classed as cell-based, human. Also noted: EPO secretion, % of control compound: dose or concentration left out as unconfirmed. Conditions: 24 h, compound at 100 μM (10 μM or 100 μM), EPO secretion as percentage of control compound 7-[(4-Chloro-phenyl)-(5-methyl-isoxazol-3-ylamino)-methyl]-quinolin-8-ol.
On to `O=C(O)c1cnn(-c2nc3ccccc3[nH]2)c1` [Example 1, 1-(1H-Benzoimidazol-2-yl)-1H-pyrazole-4-carboxylic Acid], for which the “Cellular % EPO Stimulation” value amounted to 7.1%.

Take `Cc1cc2nc(-n3cc(C(=O)O)cn3)[nH]c2cc1C` [Example 5, 1-(5,6-Dimethyl-1H-benzoimidazol-2-yl)-1H-pyrazole-4-carboxylic Acid]: the “Cellular % EPO Stimulation” value was 2.1%.

On to `O=C(O)c1cnn(-c2nc3cc(Br)ccc3[nH]2)c1` [Example 6, 1-(5-Bromo-1H-benzoimidazol-2-yl)-1H-pyrazole-4-carboxylic Acid], for which the “Cellular % EPO Stimulation” value was found to be 9.91%.

Consider `COc1ccc2[nH]c(-n3cc(C(=O)O)cn3)nc2c1` [Example 7, 1-(5-Methoxy-1H-benzoimidazol-2-yl)-1H-pyrazole-4-carboxylic Acid], for which the “Cellular % EPO Stimulation” value worked out at 16.8%.

On to `O=C(O)c1cnn(-c2nc3c(Cl)cc(C(F)(F)F)cc3[nH]2)c1` [Example 8, 1-(4-Chloro-6-trifluoromethyl-1H-benzoimidazol-2-yl)-1H-pyrazole-4-carboxylic Acid], for which the “Cellular % EPO Stimulation” value stood at 20.97%.

As for `COc1cc2nc(-n3cc(C(=O)O)cn3)[nH]c2cc1OC` [Example 9, 1-(5,6-Dimethoxy-1H-benzoimidazol-2-yl)-1H-pyrazole-4-carboxylic Acid], the “Cellular % EPO Stimulation” value was found to be 4.26%.

As to `Cc1ccc2[nH]c(-n3cc(C(=O)O)cn3)nc2c1C` [Example 10, 1-(4,5-Dimethyl-1H-benzoimidazol-2-yl)-1H-pyrazole-4-carboxylic Acid], the “Cellular % EPO Stimulation” value is recorded as 10.7%.

In the case of `O=C(O)c1cnn(-c2nc3cc(OC(F)(F)F)ccc3[nH]2)c1` [Example 11, 1-(5-Trifluoromethoxy-1H-benzoimidazol-2-yl)-1H-pyrazole-4-carboxylic Acid], the “Cellular % EPO Stimulation” value amounted to 123.68%.

Regarding `O=C(O)c1cnn(-c2nc3cc(-c4cccc(OCc5cccc(Cl)c5)c4)ccc3[nH]2)c1` [Example 12, 1-{5-[3-(3-Chloro-benzyloxy)-phenyl]-1H-benzoimidazol-2-yl}-1H-pyrazole-4-carboxylic Acid], the “Cellular % EPO Stimulation” value was found to be 8.76%.

For `O=C(O)c1cnn(-c2nc3cc(-c4cccc(OCc5ccccc5Cl)c4)ccc3[nH]2)c1` [Example 13, 1-{5-[3-(2-Chloro-benzyloxy)-phenyl]-1H-benzoimidazol-2-yl}-1H-pyrazole-4-carboxylic Acid], the “Cellular % EPO Stimulation” value is reported as 18%.

As to `O=C(O)c1cnn(-c2nc3cc(-c4cccc(OCc5ccccc5)c4)ccc3[nH]2)c1` [Example 15, 1-[5-(3-Benzyloxy-phenyl)-1H-benzoimidazol-2-yl]-1H-pyrazole-4-carboxylic Acid], the “Cellular % EPO Stimulation” value turned out to be 10.77%.

`O=C(O)c1cnn(-c2nc3cc(-c4ccc(OCc5ccccc5)cc4)ccc3[nH]2)c1` [Example 16, 1-[5-(4-Benzyloxy-phenyl)-1H-benzoimidazol-2-yl]-1H-pyrazole-4-carboxylic Acid]: the “Cellular % EPO Stimulation” value amounted to 6.97%.

In the case of `O=C(O)c1cnn(-c2nc3cc(-c4cccc(C(F)(F)F)c4)ccc3[nH]2)c1` [Example 17, 1-[5-(3-Trifluoromethyl-phenyl)-1H-benzoimidazol-2-yl]-1H-pyrazole-4-carboxylic Acid], the “Cellular % EPO Stimulation” value stood at 5.8%.

Consider `O=C(O)c1cnn(-c2nc3cc(-c4ccc(Cl)c(Cl)c4)ccc3[nH]2)c1` [Example 18, 1-[5-(3,4-Dichloro-phenyl)-1H-benzoimidazol-2-yl]-1H-pyrazole-4-carboxylic Acid], for which the “Cellular % EPO Stimulation” value amounted to 15.3%.

Take `O=C(O)c1cn(-c2nc3cc(Br)ccc3[nH]2)nc1C(F)(F)F` [Example 19, 1-(5-Bromo-1H-benzoimidazol-2-yl)-3-trifluoromethyl-1H-pyrazole-4-carboxylic Acid]: the “Cellular % EPO Stimulation” value is given as 20.52%.

On to `Cc1nn(-c2nc3cc(Br)ccc3[nH]2)c(C)c1C(=O)O` [Example 21, 1-(5-Bromo-1H-benzoimidazol-2-yl)-3,5-dimethyl-1H-pyrazole-4-carboxylic Acid], for which the “Cellular % EPO Stimulation” value came out at 7.24%.

As for `O=C(O)c1cnn(-c2nc3cc(-c4ccc(O)cc4)ccc3[nH]2)c1` [Example 23, 1-[5-(4-Hydroxy-phenyl)-1H-benzoimidazol-2-yl]-1H-pyrazole-4-carboxylic Acid], the “Cellular % EPO Stimulation” value worked out at 6.49%.

For `O=C(O)c1cnn(-c2nc3cc(-c4cccc(O)c4)ccc3[nH]2)c1` [Example 24, 1-[5-(3-Hydroxy-phenyl)-1H-benzoimidazol-2-yl]-1H-pyrazole-4-carboxylic Acid], the “Cellular % EPO Stimulation” value turned out to be 11.15%.

For the molecule `O=C(O)c1cnn(-c2nc3cc(Cl)ccc3[nH]2)c1` [Example 25, 1-(5-Chloro-1H-benzoimidazol-2-yl)-1H-pyrazole-4-carboxylic Acid], the “Cellular % EPO Stimulation” value was 71.87%.

On to `Cc1c(Br)cc2nc(-n3cc(C(=O)O)cn3)[nH]c2c1C` [Example 26, 1-(5-Bromo-6,7-dimethyl-1H-benzoimidazol-2-yl)-1H-pyrazole-4-carboxylic Acid], for which the “Cellular % EPO Stimulation” value came out at 11.9%.

Still in this experiment, the particulars now being: Homo sapiens, Hep3B, 24 h, EPO secretion as percentage of control compound 7-[(4-Chloro-phenyl)-(5-methyl-isoxazol-3-ylamino)-methyl]-quinolin-8-ol, read-out: Cellular % EPO Stimulation.
With `O=C(O)c1cnn(-c2nc3cc(C(F)(F)F)ccc3[nH]2)c1` [Example 3, 1-(5-Trifluoromethyl-1H-benzoimidazol-2-yl)-1H-pyrazole-4-carboxylic Acid], the EPO secretion, % of control compound was found to be 110%.

As for `O=C(O)c1cnn(-c2nc3cc(-c4cccc(OCc5ccc(Cl)cc5)c4)ccc3[nH]2)c1` [Example 14, 1-{5-[3-(4-Chloro-benzyloxy)-phenyl]-1H-benzoimidazol-2-yl}-1H-pyrazole-4-carboxylic Acid], the EPO secretion, % of control compound is 20.1%.

Turning to `O=C(O)c1cnn(-c2nc3cc(OC(F)(F)F)cc(Br)c3[nH]2)c1` [Example 29, 1-(7-Bromo-5-trifluoromethoxy-1H-benzoimidazol-2-yl)-1H-pyrazole-4-carboxylic Acid], the EPO secretion, % of control compound amounted to 57.5%.

On to `O=C(O)c1cnn(-c2nc3cc(C(F)(F)F)c(Cl)cc3[nH]2)c1` [Example 30, 1-(6-Chloro-5-trifluoromethyl-1H-benzoimidazol-2-yl)-1H-pyrazole-4-carboxylic Acid], for which the EPO secretion, % of control compound came out at 129%.

With `O=C(O)c1cnn(-c2nc3cc(C(F)(F)F)c(F)cc3[nH]2)c1` [Example 129, 1-(6-Fluoro-5-trifluoromethyl-1H-benzoimidazol-2-yl)-1H-pyrazole-4-carboxylic Acid], the EPO secretion, % of control compound came out at 70.8%.

Take `CCCSc1cc2nc(-n3cc(C(=O)O)cn3)[nH]c2cc1F` [Example 152, 1-(6-Fluoro-5-propylsulfanyl-1H-benzoimidazol-2-yl)-1H-pyrazole-4-carboxylic Acid]: the EPO secretion, % of control compound stood at 91.4%.

The target of another experiment is human PHD2181-417 (Homo sapiens (Human), UniProt Q9GZT9). Put plainly: PHD2 enzyme activity assay ([14C]-succinic acid production).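 Note: reaction ran 10 min with compound in Tris pH 7.5 buffer with catalase, DTT and ascorbate, labelled succinate freed of leftover 2-oxoglutarate by DNP precipitation, then beta counted.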 The experiment is classed as biochemical. Conditions: PHD2181-417 polypeptide, HIF-1α peptide 10 μM, [5-14C]-2-oxoglutaric acid; 30 min pre-incubation; tested 10 μM to 3 nM.
human PHD2181-417, sequence (Q9GZT9 181-417): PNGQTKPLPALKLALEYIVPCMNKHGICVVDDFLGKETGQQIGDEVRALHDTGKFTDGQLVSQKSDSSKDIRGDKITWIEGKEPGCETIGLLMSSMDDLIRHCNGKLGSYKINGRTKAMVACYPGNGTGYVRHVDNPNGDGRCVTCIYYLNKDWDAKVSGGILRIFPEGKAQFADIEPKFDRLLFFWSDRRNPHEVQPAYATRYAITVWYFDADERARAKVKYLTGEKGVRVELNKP
With `CC(C)Sc1cc2[nH]c(-n3cc(C(=O)O)cn3)nc2cc1C(F)(F)F` [Example 73, 1-(6-Isopropylsulfanyl-5-trifluoromethyl-1H-benzoimidazol-2-yl)-1H-pyrazole-4-carboxylic Acid], the “Enzyme pIC50” value is recorded as 7.2.

For `CC(C)Sc1cc2[nH]c(-n3cc(C(=O)O)cn3)nc2cc1OC(F)(F)F` [Example 80, 1-(6-Isopropylsulfanyl-5-trifluoromethoxy-1H-benzoimidazol-2-yl)-1H-pyrazole-4-carboxylic Acid], the “Enzyme pIC50” value amounted to 7.

In the case of `CCCSc1cc2[nH]c(-n3cc(C(=O)O)cn3)nc2cc1OC(F)(F)F` [Example 81, 1-(6-Propylsulfanyl-5-trifluoromethoxy-1H-benzoimidazol-2-yl)-1H-pyrazole-4-carboxylic Acid], the “Enzyme pIC50” value was 7.

On to `CC(C)S(=O)(=O)c1cc2[nH]c(-n3cc(C(=O)O)cn3)nc2cc1C(F)(F)F` [Example 103, 1-[6-(Propane-2-sulfonyl)-5-trifluoromethyl-1H-benzoimidazol-2-yl]-1H-pyrazole-4-carboxylic Acid], for which the “Enzyme pIC50” value is recorded as 7.4.

Turning to `CCCS(=O)(=O)c1cc2[nH]c(-n3cc(C(=O)O)cn3)nc2cc1C(F)(F)F` [Example 104, 1-[6-(Propane-1-sulfonyl)-5-trifluoromethyl-1H-benzoimidazol-2-yl]-1H-pyrazole-4-carboxylic Acid], the “Enzyme pIC50” value was found to be 7.5.

In the case of `CC(C)S(=O)(=O)c1cc2[nH]c(-n3cc(C(=O)O)cn3)nc2cc1OC(F)(F)F` [Example 105, 1-[6-(Propane-2-sulfonyl)-5-trifluoromethoxy-1H-benzoimidazol-2-yl]-1H-pyrazole-4-carboxylic Acid], the “Enzyme pIC50” value is recorded as 7.4.

As to `CC(C)Sc1cc2nc(-n3cc(C(=O)O)cn3)[nH]c2cc1F` [Example 153, 1-(6-Fluoro-5-isopropylsulfanyl-1H-benzoimidazol-2-yl)-1H-pyrazole-4-carboxylic Acid], the “Enzyme pIC50” value is 6.9.

On to `CCCS(=O)(=O)c1cc2nc(-n3cc(C(=O)O)cn3)[nH]c2cc1F` [Example 157, 1-(6-Fluoro-5-propylsulfonyl-1H-benzoimidazol-2-yl)-1H-pyrazole-4-carboxylic Acid], for which the “Enzyme pIC50” value was 7.4.

`CC(C)S(=O)(=O)c1cc2nc(-n3cc(C(=O)O)cn3)[nH]c2cc1F` [Example 158, 1-(6-Fluoro-5-isopropylsulfonyl-1H-benzoimidazol-2-yl)-1H-pyrazole-4-carboxylic Acid]: the “Enzyme pIC50” value is reported as 7.3.

The experiment is the same for the next values; noted with them: PHD2181-417 polypeptide, HIF-1α peptide 10 μM, [5-14C]-2-oxoglutaric acid; 30 min pre-incubation; tested 10 μM to 3 nM; read-out: Enzyme pIC50 (converted).
With `Cc1ccc(CSc2cc3nc(-n4cc(C(=O)O)cn4)[nH]c3cc2Cl)cc1` [Example 169, 1-[6-Chloro-5-(4-methyl-benzylsulfanyl)-1H-benzoimidazol-2-yl]-1H-pyrazole-4-carboxylic Acid], the IC50 was 200 nM.
